Data taken from BindingDB's records for PubMed 7853174 (Merck Research Laboratories, 1995).

Biological target: T1, Type-2 angiotensin II receptor (Rattus norvegicus, UniProt P35351)
T1 sequence (P35351 whole entry): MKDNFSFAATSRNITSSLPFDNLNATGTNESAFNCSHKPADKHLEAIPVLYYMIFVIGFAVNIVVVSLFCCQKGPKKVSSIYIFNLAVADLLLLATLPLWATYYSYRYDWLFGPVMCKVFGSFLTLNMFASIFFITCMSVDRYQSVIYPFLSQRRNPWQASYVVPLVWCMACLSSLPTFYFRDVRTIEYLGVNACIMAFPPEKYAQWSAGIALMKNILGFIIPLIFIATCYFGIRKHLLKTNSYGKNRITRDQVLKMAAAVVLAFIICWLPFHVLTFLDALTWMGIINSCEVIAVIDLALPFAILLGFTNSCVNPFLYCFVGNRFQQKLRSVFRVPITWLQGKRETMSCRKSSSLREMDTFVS

Ki: 5.77 µM
SMILES: CCCc1nc(C(F)(F)C(F)(F)F)c(C(=O)O)n1Cc1ccc(-c2ccccc2-c2nnn[nH]2)cc1 [CAS_124750-95-4]
